{"source": "patent US8222483B2", "about": "“Cytokinin oxidase sequences and methods of use” (Pioneer Hi Bred International Inc, priority 2004, dated 2012)", "test_system": "ZmCkx2", "assay": "ZmCkx2 expression in leaf discs incubated with benzyladenine (Northern and Lynx analyses)", "format": "cell-based, maize", "conditions": "leaf discs incubated with 10 μM benzyladenine", "experimental": "Northern analysis of ZmCkx2 was performed using ExpressHyb™ Hybridization Solution from BD Biosciences Clontech (Palo Alto, Calif.) with a final wash in 0.1×SSC, 0.1% SDS at 65° C. for 20 minutes.\nA tight relationship exists between Lynx and Northern data for ZmCkx2. This provided confidence when the Lynx database was mined for ZmCkx2 expression in various plant parts. […] Similarly, Northern data indicated strongest signals from ear leaf and midrib tissues; intermediate levels in tassel, husk leaves, young leaves, stalk, and pulvini; and lower levels in cob and ovary tissue. Little to no ZmCkx2 activity was detected by Northern analysis of roots or silks.", "data": [{"smiles": "c1ccc(CNc2ncnc3nc[nH]c23)cc1", "note": "[benzyladenine]", "values": [{"measurement": "increase in ZmCkx2 expression", "value": 2, "unit": "fold"}]}]}
